A short description of series [1]: Reducing power by the Somogyi-Nelson method, represented in terms of DE. The class given is physicochemical. Conditions: high-purity preparations, Somogyi-Nelson method. As to the method: The high-purity preparations of the newly formed saccharides were determined for reducing power by the Somogyi-Nelson method and represented in terms of DE.
In the next series the test system is glucoamylase. Nature of the series: Enzymatic hydrolysis by glucoamylase. Type of series: biochemical. Conditions: for Molar ratio (glucose/trehalose): degradation product by glucoamylase; for Glucose in degradation product by glucoamylase / Trehalose in degradation product by glucoamylase: pH4.5, 40° C., 6 hours. As to the method:
Fifty milligrams of the non-reducing saccharide preparation PI, PII, PIII, PIV or PV prepared in Experiment 4 was dissolved in 1 ml of 50 mM acetate buffer (pH4.5), added with one unit of the glucoamylase commercialized by Seikagaku Corp., Tokyo, Japan, incubated at 40° C. for 6 hours for enzymatic hydrolysis and analyzed for degradation products on high-performance liquid chromatography, thus detecting glucose and trehalose as sole products. The noted glucose contents, trehalose contents and their molar ratios were as shown in Table 5.

In a further series the test system is beta-amylase. Briefly: Degradation by beta-amylase. The class given is biochemical. An excerpt:
Considering the reaction characteristics of glucoamylase, these saccharides very likely bear structures where glucose molecule(s) is bound to trehalose molecule via alpha1,4 or alpha-1,6 linkage: Saccharide PI is a non-reducing saccharide with a glucose polymerization degree of 3 where one glucose molecule is bound to one trehalose molecule; saccharide PII, another non-reducing saccharide with a glucose polymerization degree of 4 where two glucose molecules are bound to one trehalose molecule; saccharide PIII, still another non-reducing saccharide with a glucose polymerization degree of 5 where three glucose molecules are bound to one trehalose molecule; saccharide PIV, still another non-reducing saccharide with a glucose polymerization degree of 6 where four glucose molecules are bound to one trehalose molecule; and saccharide PV, still another non-reducing saccharide with a polymerization degree of 7 where five glucose molecules are bound to one trehalose molecule.

Series [2] has as its system pig pancreas alpha-amylase. Nature of the series: Degradation by pig pancreas alpha-amylase. The class given is biochemical. Conditions: for G1 (glucose) in degradation product by alpha-amylase / G2 (maltose) in degradation product by alpha-amylase / G3 (maltotriose) in degradation product by alpha-amylase / PI in degradation product by alpha-amylase / PII in degradation product by alpha-amylase: pH6.9, 37° C., 18 hours. As for the experimental part: (§1) The non-reducing saccharide preparations PI, PII, PIII, PIV and PV as substrates prepared in Experiment 4 were subjected to pig pancreas alpha-amylase, rice alpha-glucosidase and acetone-pulverized rat small intestine enzyme, all of which were products of Sigma Chemical Co., St Louis, Mo., USA, and the degradation products were analyzed on high-performance liquid chromatography for saccharide composition. The reaction by alpha-amylase was carried out by dissolving 10 mg of either substrate in 1 ml of 50 mM phosphate buffer (pH6.9), adding thereto one unit of alpha-amylase and incubating at 37° C. for 18 hours. The reaction by alpha-glucosidase was conducted similarly as in the case of alpha-amylase except that 50 mM acetate buffer (pH4.0) was used. In the case of acetone-pulverized rat small intestine enzyme, the reaction was conducted similarly as in the case of alpha-amylase except that 50 mM maleic acid buffer (pH6.0) was used.

In the next series the test system is rice alpha-glucosidase. Nature of the series: Degradation by rice alpha-glucosidase. Type of series: biochemical. The conditions noted are these: for Glucose in degradation product by alpha-glucosidase / Others in degradation product by alpha-glucosidase / Trehalose in degradation product by alpha-glucosidase: pH4.0, 37° C., 18 hours. As for the experimental part: as §1

A further series has as its system pig kidney trehalase. Briefly: Degradation by pig kidney trehalase. The class given is biochemical. The conditions noted are these: trehalose, or trehalose formed from PI-PV; pH5.7, 37° C., 18 hours for the latter. As to the method:
In order to purify trehalose from respective reaction products, they were decolored, deionized, concentrated and subjected to column fractionation on a strongly-acidic cation exchange of sodium form "XT-1016", followed by recovering high-purity fractions with trehalose contents of 97% or higher. The fractions were then concentrated to about 65% and allowed to standing at 25° C. for 2 days to crystallize out crystalline trehalose hydrate which was then separated and dried in vacuo to obtain a high-purity preparation with a trehalose content of 99% or higher. The yields against respective starting substrates on dry solid basis were as follows: from glycosyl trehalose, 9.5%; from maltosyl trehalose, 14.9%; from maltotriosyl trehalose, 16.0%; from maltotetraosyl trehalose, 18.5%; and from maltopentaosyl trehalose, 17.7%. […] As evident from the above results, the saccharides formed by subjecting alpha-glycosyl trehaloses to the trehalose-releasing enzyme were identified to be trehalose.

The target in series [3] is T1, trehalose-releasing enzyme (Rhizobium sp. M-11, UniProt Q53238).
T1 construct: M-11, about 58-68 kDa
T1 sequence (Q53238 1-596): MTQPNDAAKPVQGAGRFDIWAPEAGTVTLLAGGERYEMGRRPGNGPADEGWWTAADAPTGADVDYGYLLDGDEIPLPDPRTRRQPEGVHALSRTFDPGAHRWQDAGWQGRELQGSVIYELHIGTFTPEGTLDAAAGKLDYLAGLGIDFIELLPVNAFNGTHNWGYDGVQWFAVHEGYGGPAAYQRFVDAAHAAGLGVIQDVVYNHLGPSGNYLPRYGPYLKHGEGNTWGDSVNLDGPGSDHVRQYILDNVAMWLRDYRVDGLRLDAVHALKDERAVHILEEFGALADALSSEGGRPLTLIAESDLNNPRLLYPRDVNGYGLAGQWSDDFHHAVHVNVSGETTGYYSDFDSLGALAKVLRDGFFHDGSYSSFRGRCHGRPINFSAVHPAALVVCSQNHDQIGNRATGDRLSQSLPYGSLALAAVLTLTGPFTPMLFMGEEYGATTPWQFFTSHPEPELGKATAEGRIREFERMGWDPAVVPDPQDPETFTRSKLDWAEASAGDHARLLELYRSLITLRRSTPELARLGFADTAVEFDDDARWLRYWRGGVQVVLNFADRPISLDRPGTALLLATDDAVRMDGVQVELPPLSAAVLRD
The class given is biochemical, Rhizobium species M-11. The conditions noted are these: for Composition: trehalose formed / Composition: reducing saccharide formed: 20% substrate, 2 units/g, 40° C., pH7.0, 48 hours; for Composition: reducing saccharide formed: glucose, maltose, maltotriose, maltotetraose or maltopentaose respectively; for Composition: residual substrate: trehalose-releasing enzyme, 48 h, pH 7. As to the method: Alpha-glycosyl trehaloses as substrates were prepared in accordance with the method described in Japanese Patent Application No. 349,216/93. More particularly, 20% aqueous solutions of maltotriose, maltotetraose, maltopentaose, maltohexaose or maltoheptaose as reducing partial starch hydrolysate were added with 2 units/g substrate solid of a purified non-reducing saccharide-forming enzyme obtained by the method in […], reacted at 40° C. and pH7.0 for 48 hours, heated for inactivation, filtered, deionized, concentrated in conventional manner and applied to ion exchange column chromatography on a strongly-acidic cation exchange "XT-1016" in sodium form. The ion exchange resin was packed in 3 jacketed-stainless steel columns, inner diameter of 2.0 cm, length of 1 m, and the columns were cascaded, loaded with 5 v/v % reaction saccharide liquid against the resin and injected with 55° C. water at SV0.13 for fractionation while keeping the temperature inside the columns at 55° C., thus obtaining high-purity preparations of non-reducing saccharides with glucose polymerization degrees of 3 or higher.
20% Aqueous solutions of these five types of non-reducing saccharides or alpha-glycosyl trehaloses were prepared, added with 2 units/g substrate solid of the purified trehalose-releasing enzyme obtained in Experiment 15, reacted at 40° C. and pH7.0 for 48 hours, deionized and subjected to high-performance liquid chromatography on "WAKO BEADS WB-T-330" for analysis of reaction products. As control, maltotriose, maltotetraose, maltopentaose, maltohexaose and maltoheptaose were subjected to the purified trehalose-releasing enzyme similarly as above and then analyzed on high-performance liquid chromatography.

“Also recorded” adds a separate entry of the source.

With `OC[C@H]1O[C@H](O[C@H]2O[C@H](CO)[C@@H](O[C@H]3O[C@H](CO)[C@@H](O[C@H]4O[C@H](CO)[C@@H](O[C@H]5O[C@H](CO)[C@@H](O[C@H]6O[C@H](CO)[C@@H](O)[C@H](O)[C@H]6O)[C@H](O)[C@H]5O)[C@H](O)[C@H]4O)[C@H](O)[C@H]3O)[C@H](O)[C@H]2O)[C@H](O)[C@@H](O)[C@@H]1O` [PIV, alpha-maltotetraosyl trehalose], the “DE of saccharide preparation” value in series [1] turned out to be 0.27. In the series with glucoamylase, the “Degradation by glucoamylase (in words)” value is “four glucose molecules and one trehalose molecule”; the “Molar ratio (glucose/trehalose)” value came out at 4.09; the “Glucose in degradation product by glucoamylase” value is listed as 68.3%; the “Trehalose in degradation product by glucoamylase” value turned out to be 31.7%. The “Degradation by beta-amylase (in words)” value in the series on beta-amylase is “one maltose molecules and one saccharide PII molecule”. Besides, in series [2], the “Degradation by alpha-amylase (in words)” value is reported as “degraded by alpha-amylase into smaller oligosaccharides”, the “G1 (glucose) in degradation product by alpha-amylase” value was 1.6%, the “G2 (maltose) in degradation product by alpha-amylase” value is listed as 7.5% and the “G3 (maltotriose) in degradation product by alpha-amylase” value is recorded as 40.4%. In series [2], the “PI in degradation product by alpha-amylase” value is on record as 47.2% and the “PII in degradation product by alpha-amylase” value was determined as 3.3%. Further, in the series on rice alpha-glucosidase, the “Degradation by alpha-glucosidase (in words)” value was “degradable”, the “Glucose in degradation product by alpha-glucosidase” value is 69.5%, the “Others in degradation product by alpha-glucosidase” value is given as 0.3% and the “Trehalose in degradation product by alpha-glucosidase” value amounted to 30.2%. Besides, the “Degradation by pig kidney trehalase (in words)” value with pig kidney trehalase is on record as “degradable into glucose by the trehalase”. Besides, in series [3], the “Composition: trehalose formed” value turned out to be 34.2%, the “Composition: reducing saccharide formed” value turned out to be 65.5% and the “Composition: residual substrate” value was 0.3%.

On to `OC[C@H]1O[C@H](O[C@H]2O[C@H](CO)[C@@H](O[C@H]3O[C@H](CO)[C@@H](O[C@H]4O[C@H](CO)[C@@H](O[C@H]5O[C@H](CO)[C@@H](O[C@H]6O[C@H](CO)[C@@H](O[C@H]7O[C@H](CO)[C@@H](O)[C@H](O)[C@H]7O)[C@H](O)[C@H]6O)[C@H](O)[C@H]5O)[C@H](O)[C@H]4O)[C@H](O)[C@H]3O)[C@H](O)[C@H]2O)[C@H](O)[C@@H](O)[C@@H]1O` [PV, alpha-maltopentaosyl trehalose], for which the “DE of saccharide preparation” value in series [1] amounted to 0.23. In the series with glucoamylase, the “Degradation by glucoamylase (in words)” value was “five glucose molecules and one trehalose molecule”; the “Molar ratio (glucose/trehalose)” value turned out to be 5.11; the “Glucose in degradation product by glucoamylase” value came out at 72.9%; the “Trehalose in degradation product by glucoamylase” value stood at 27.1%. Moreover, the “Degradation by beta-amylase (in words)” value in the series on beta-amylase was “two maltose molecules and one saccharide PI molecule”. For the same compound, in series [2], the “Degradation by alpha-amylase (in words)” value was “degraded by alpha-amylase into smaller oligosaccharides; also recorded: yields non-reducing saccharide PII and maltotriose as predominant products”; the “G1 (glucose) in degradation product by alpha-amylase” value was 1.0%; the “G2 (maltose) in degradation product by alpha-amylase” value turned out to be 8.6%; the “G3 (maltotriose) in degradation product by alpha-amylase” value is 35.3%. Moreover, in series [2], the “PI in degradation product by alpha-amylase” value came to 10.2% and the “PII in degradation product by alpha-amylase” value was 44.9%. Further, in the series with rice alpha-glucosidase, the “Degradation by alpha-glucosidase (in words)” value is given as “degradable”, the “Glucose in degradation product by alpha-glucosidase” value was 71.4%, the “Others in degradation product by alpha-glucosidase” value came out at 0.3% and the “Trehalose in degradation product by alpha-glucosidase” value is 28.3%. Also, in the series with pig kidney trehalase, the “Degradation by pig kidney trehalase (in words)” value is recorded as “degradable into glucose by the trehalase”. In series [3], the “Composition: trehalose formed” value is given as 29.1%, the “Composition: reducing saccharide formed” value is on record as 70.6% and the “Composition: residual substrate” value is reported as 0.3%.

(Values after patent publication US5919668A, “Non-reducing saccharide and its production and use” (Kabushiki Kaisha Hayashibara Seibutsu Kagaku Kenkyujo, priority 1994, dated 1999).)
